Assay results from ChEMBL document CHEMBL1201862, “PubChem BioAssay data set” (2004).
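Each compound was tested at five concentrations against cells in 96-well plates for 48 hours. Abbreviation: GI50, concentration required for 50% inhibition of growth.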 Calls of active or inactive are those of the source. Rule as the data show it: active = GI50 up to about 1.1 µM and inactive = higher.

Key:
Test in all cases: inhibition of tumour cell growth, NCI panel, 48 h
786-0 = test system: 786-0
A498 = test system: A498
A549 = test system: A549
ACHN = test system: ACHN
BT-549 = test system: BT-549
CCRF-CEM = test system: CCRF-CEM
COLO 205 = test system: COLO 205
DU-145 = test system: DU-145
EKVX = test system: EKVX
HCC 2998 = test system: HCC 2998
HCT-116 = test system: HCT-116
HCT-15 = test system: HCT-15
HL-60 = test system: HL-60
HOP-62 = test system: HOP-62
HOP-92 = test system: HOP-92
HT-29 = test system: HT-29
Hs-578T = test system: Hs-578T
IGROV-1 = test system: IGROV-1
K562 = test system: K562
KM12 = test system: KM12
LOX IMVI = test system: LOX IMVI
M14 = test system: M14
MCF7 = test system: MCF7
MDA-MB-231 = test system: MDA-MB-231
MDA-MB-435 = test system: MDA-MB-435
MOLT-4 = test system: MOLT-4
Malme-3M = test system: Malme-3M
NCI-H226 = test system: NCI-H226
NCI-H23 = test system: NCI-H23
NCI-H460 = test system: NCI-H460
NCI-H522 = test system: NCI-H522
NCI/ADR-RES = test system: NCI/ADR-RES
OVCAR-3 = test system: OVCAR-3
OVCAR-4 = test system: OVCAR-4
OVCAR-5 = test system: OVCAR-5
OVCAR-8 = test system: OVCAR-8
PC-3 = test system: PC-3
RPMI-8226 = test system: RPMI-8226
RXF 393 = test system: RXF 393
SF-268 = test system: SF-268
SF-295 = test system: SF-295
SF-539 = test system: SF-539
SK-MEL-28 = test system: SK-MEL-28
SK-MEL-2 = test system: SK-MEL-2
SK-MEL-5 = test system: SK-MEL-5
SK-OV-3 = test system: SK-OV-3
SN12C = test system: SN12C
SNB-19 = test system: SNB-19
SNB-75 = test system: SNB-75
SR = test system: SR
SW-620 = test system: SW-620
T47D = test system: T47D
TK-10 = test system: TK-10
U-251 = test system: U-251
UACC-257 = test system: UACC-257
UACC-62 = test system: UACC-62
UO-31 = test system: UO-31
CAKI-1 = test system: CAKI-1
MDA-N = test system: MDA-N

Measured: GI50

O=C1C(=C(C(F)(F)Cl)C(F)(F)Cl)C2CCC1C2 (stereo not given)
1.98 µM: HCT-15
active: CCRF-CEM 0.00986 µM | HL-60 0.238 µM | K562 0.63 µM | MOLT-4 0.0131 µM | NCI-H522 0.225 µM | RPMI-8226 0.849 µM | SR 0.0655 µM
inactive: 786-0 1.87 µM | A498 > 10 µM | A549 2.2 µM | ACHN 1.84 µM | BT-549 1.58 µM | COLO 205 1.67 µM | DU-145 7.53 µM | EKVX > 10 µM | HCC 2998 5.31 µM | HCT-116 1.9 µM | HOP-62 > 9.16 µM | HOP-92 2.58 µM | HT-29 2.19 µM | Hs-578T 4.51 µM | IGROV-1 1.89 µM | KM12 3.01 µM | LOX IMVI 1.33 µM | M14 1.16 µM | MCF7 2.49 µM | MDA-MB-231 1.56 µM | MDA-MB-435 1.88 µM | Malme-3M 1.55 µM | NCI-H226 > 5.38 µM | NCI-H23 1.96 µM | NCI-H460 3.15 µM | NCI/ADR-RES 2.15 µM | OVCAR-3 2.45 µM | OVCAR-4 2.84 µM | OVCAR-5 2.96 µM | OVCAR-8 1.94 µM | PC-3 2.07 µM | RXF 393 1.63 µM | SF-268 2.41 µM | SF-295 4.67 µM | SF-539 3.29 µM | SK-MEL-28 1.93 µM | SK-MEL-2 1.78 µM | SK-MEL-5 1.67 µM | SK-OV-3 > 10 µM | SN12C 1.97 µM | SNB-19 > 10 µM | SNB-75 4.3 µM | SW-620 1.82 µM | T47D 1.38 µM | TK-10 1.77 µM | U-251 5.27 µM | UACC-257 1.9 µM | UACC-62 2.01 µM | UO-31 2.49 µM

COCCNC1CCC2(SCCS2)c2[nH]c3ccccc3c21 (stereo not given)
69.8 µM: HCT-15
inactive: 786-0 31.8 µM | A498 25.5 µM | A549 > 100 µM | ACHN 61.9 µM | BT-549 20.6 µM | CAKI-1 39.1 µM | CCRF-CEM 35.2 µM | COLO 205 22.2 µM | DU-145 39.3 µM | EKVX > 100 µM | HCC 2998 67.6 µM | HCT-116 50.1 µM | HL-60 18.9 µM | HOP-62 86.7 µM | HOP-92 21.8 µM | HT-29 > 100 µM | Hs-578T 57.9 µM | IGROV-1 > 100 µM | K562 32.2 µM | KM12 17.8 µM | LOX IMVI 16.5 µM | M14 16 µM | MCF7 16.8 µM | MDA-MB-231 20.3 µM | MDA-MB-435 22.4 µM | MDA-N 22.9 µM | MOLT-4 29.2 µM | Malme-3M > 10 µM | NCI-H226 40.3 µM | NCI-H23 > 100 µM | NCI-H460 67.8 µM | NCI-H522 30.8 µM | NCI/ADR-RES 37.5 µM | OVCAR-3 27.2 µM | OVCAR-4 97.1 µM | OVCAR-5 > 100 µM | OVCAR-8 46.1 µM | PC-3 28.6 µM | RPMI-8226 15 µM | RXF 393 14 µM | SF-268 > 100 µM | SF-295 50.4 µM | SF-539 23.6 µM | SK-MEL-28 26.3 µM | SK-MEL-2 44.8 µM | SK-MEL-5 25.1 µM | SN12C 28.4 µM | SNB-19 > 100 µM | SNB-75 90.8 µM | SR 23.1 µM | SW-620 68.7 µM | TK-10 22.5 µM | U-251 37.2 µM | UACC-257 18 µM | UO-31 > 10 µM

CC(=O)Oc1c(-c2ccccc2)oc2ccccc12
1.99 µM: HCT-15
inactive: 786-0 4.02 µM | A498 2.96 µM | A549 1.51 µM | ACHN 1.79 µM | BT-549 2.65 µM | CCRF-CEM 1.58 µM | COLO 205 1.9 µM | DU-145 3.96 µM | EKVX 2.06 µM | HCC 2998 1.31 µM | HCT-116 1.66 µM | HL-60 1.12 µM | HOP-62 2.42 µM | HOP-92 2.4 µM | HT-29 2.5 µM | Hs-578T 2.36 µM | IGROV-1 2.08 µM | K562 2.06 µM | M14 2.02 µM | MCF7 2.11 µM | MDA-MB-231 1.45 µM | MDA-MB-435 2.43 µM | MOLT-4 1.89 µM | Malme-3M 2.83 µM | NCI-H226 2.07 µM | NCI-H23 1.77 µM | NCI-H522 2.3 µM | NCI/ADR-RES 2.66 µM | OVCAR-3 2.12 µM | OVCAR-4 3.19 µM | OVCAR-5 1.85 µM | OVCAR-8 2.88 µM | PC-3 1.53 µM | RXF 393 1.42 µM | SF-268 2.28 µM | SF-539 1.36 µM | SK-MEL-28 2.38 µM | SK-MEL-2 1.8 µM | SK-MEL-5 1.35 µM | SN12C 2.19 µM | SNB-19 1.53 µM | SNB-75 1.57 µM | SW-620 3.1 µM | T47D 1.98 µM | TK-10 3.73 µM | UACC-257 2.59 µM | UACC-62 3.13 µM | UO-31 1.61 µM
active: CAKI-1 1.11 µM | KM12 1.09 µM | LOX IMVI 0.398 µM | NCI-H460 0.678 µM | RPMI-8226 0.813 µM | SF-295 0.946 µM | SR 0.394 µM | U-251 1.04 µM
